The results in this text go back to ChEMBL document CHEMBL1201862, “PubChem BioAssay data set” (2004).

Molecules are shown by their SMILES.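 96-well plates; 48 h exposure; 5 concentrations. Endpoints by linear interpolation between flanking doses. Not reached: highest tested concentration assigned. At the GI50, growth is halved.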 Active and inactive are the calls of the source. No stated cut-off is given here; in the data, active = GI50 up to about 1.1 µM and inactive = higher.

Some test systems named below: MCF7; HCT-15; Malme-3M; SK-OV-3; HCT-116; M14; KM12; K562; CCRF-CEM; LOX IMVI; A549; SNB-19; UACC-62; SR; A498; UO-31; COLO 205; OVCAR-4; 786-0; RPMI-8226; OVCAR-8; NCI-H23; IGROV-1; HCC 2998; U-251; UACC-257; SN12C; SNB-75; MOLT-4.
What all share (test): DTP human tumour cell line panel, 48 h

As to `CO[C@@H]1/C=C\C=C(/C)C(=O)NC2=CC(=O)C(NCCN(C)C)=C(C[C@@H](C)C[C@@H](OC)[C@@H](O)[C@H](C)/C=C(\C)[C@H]1OC(N)=O)C2=O`, the GI50 with MCF7 is < 10 nM (active); in the test with HCT-15, 619 nM; in the test on Malme-3M it was 13 nM (active); in the test with SK-OV-3, 13.7 nM (active); with HCT-116, 17.1 nM (active); in the test on M14, 10.4 nM (active). The GI50 was 12.2 nM (active) with KM12; 13.9 nM (active) in the test with K562; 24.7 nM (active) with CCRF-CEM; 10.8 nM (active) with LOX IMVI; < 10 nM (active) in the test with A549; 29.2 nM (active) in the test on SNB-19. In addition, the GI50 in the test on UACC-62 was 17.2 nM (active); with SR it was < 10 nM (active); in the test on A498 it was 13200 nM (inactive); in the test with UO-31, 838 nM (active); with COLO 205, 14.5 nM (active); with OVCAR-4, 1140 nM (inactive). Further, the 50% growth inhibitory concentration (GI50) in the test with 786-0 is 28.6 nM (active); in the test with RPMI-8226, 71.3 nM (active); in the test with OVCAR-8, 17.2 nM (active); in the test on NCI-H23, < 10 nM (active); in the test on IGROV-1, 13.9 nM (active); in the test with HCC 2998, 15 nM (active). The GI50 in the test on U-251 is 11 nM (active); in the test on UACC-257 it was 15.9 nM (active); with SN12C it was 11.3 nM (active); in the test on SNB-75, < 10 nM (active); in the test on MOLT-4, 30.3 nM (active).
For the molecule `COc1cc(C(=O)N2CCN(C=O)C2=S)cc(OC)c1OC`, the GI50 in the test on UO-31 is 67.5 nM (active); in the test on RPMI-8226 it was 7310 nM (inactive).
